# According to PubChem BioAssay AID2060599 (Molecular Pharmacology Branch, DTP, NCI, 2025):
# Tested on: 817829-284-R-J1-PDC complex spheroids, viability
# Test: Anticancer human tumor 817829-284-R-J1-PDC patient-derived colon adenocarcinoma cell line growth inhibition [CLK]
# Conditions: for IC50: curve of first compound; for viability, T/C: stronger effect = lower value
# Method in brief: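 Patient-derived tumor cells grown as complex spheroids with HUVEC endothelial cells and mesenchymal stem cells, treated with drug combinations. Concentrations descend in half-log steps from near clinical Cmax, or from 10 microM if Cmax unknown.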
# [1] = second compound 0.0316 µM, first compound 0.00316 µM
# [2] = second compound 0.0316 µM, first compound 0.01 µM
# [3] = second compound 0.0316 µM, first compound 0.0316 µM
# [4] = second compound 0.0316 µM, first compound 0.1 µM
# [5] = second compound 0.0316 µM, first compound 0.316 µM
# [6] = second compound 0.0316 µM, first compound 1 µM
# [7] = second compound 0.1 µM, first compound 0.00316 µM
# [8] = second compound 0.1 µM, first compound 0.01 µM
# [9] = second compound 0.1 µM, first compound 0.0316 µM
# [10] = second compound 0.1 µM, first compound 0.1 µM
# [11] = second compound 0.1 µM, first compound 0.316 µM
# [12] = second compound 0.1 µM, first compound 1 µM
# [13] = second compound 0.316 µM, first compound 0.00316 µM
# [14] = second compound 0.316 µM, first compound 0.01 µM
# [15] = second compound 0.316 µM, first compound 0.0316 µM
# [16] = second compound 0.316 µM, first compound 0.1 µM
# [17] = second compound 0.316 µM, first compound 0.316 µM
# [18] = second compound 0.316 µM, first compound 1 µM
# [19] = second compound 1 µM, first compound 0.00316 µM
# [20] = second compound 1 µM, first compound 0.01 µM
# [21] = second compound 1 µM, first compound 0.0316 µM
# [22] = second compound 1 µM, first compound 0.1 µM
# [23] = second compound 1 µM, first compound 0.316 µM
# [24] = second compound 1 µM, first compound 1 µM
# [25] = second compound 3.16 µM, first compound 0.00316 µM
# [26] = second compound 3.16 µM, first compound 0.01 µM
# [27] = second compound 3.16 µM, first compound 0.0316 µM
# [28] = second compound 3.16 µM, first compound 0.1 µM
# [29] = second compound 3.16 µM, first compound 0.316 µM
# [30] = second compound 3.16 µM, first compound 1 µM
# [31] = second compound 10 µM, first compound 0.00316 µM
# [32] = second compound 10 µM, first compound 0.01 µM
# [33] = second compound 10 µM, first compound 0.0316 µM
# [34] = second compound 10 µM, first compound 0.1 µM
# [35] = second compound 10 µM, first compound 0.316 µM
# [36] = second compound 10 µM, first compound 1 µM
# 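Further: spheroids exposed to the agents for seven days before readout.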
structure (smiles),measurement,setting,value
CCN1CCN(Cc2ccc(Nc3ncc(F)c(-c4cc(F)c5nc(C)n(C(C)C)c5c4)n3)nc2)CC1 + CN1CCN(c2cc(C(=O)Nc3cc4cc(-c5cnn(C)c5)ccc4cn3)ccn2)CC1,IC50,second compound 0.0316 µM,21.1 nM
same,IC50,second compound 0.1 µM,< 3.16 nM
same,IC50,second compound 0.316 µM,< 3.16 nM
same,IC50,second compound 1 µM,< 3.16 nM
same,IC50,second compound 3.16 µM,< 3.16 nM
same,IC50,second compound 10 µM,< 3.16 nM
same,"viability, T/C",[1],49.6%
same,"viability, T/C",[2],64.4%
same,"viability, T/C",[3],46.2%
same,"viability, T/C",[4],36.6%
same,"viability, T/C",[5],36.9%
same,"viability, T/C",[6],29.2%
same,"viability, T/C",[7],17.4%
same,"viability, T/C",[8],16.2%
same,"viability, T/C",[9],15.4%
same,"viability, T/C",[10],20.7%
same,"viability, T/C",[11],18.7%
same,"viability, T/C",[12],11.8%
same,"viability, T/C",[13],1.34%
same,"viability, T/C",[14],1.6%
same,"viability, T/C",[15],1.6%
same,"viability, T/C",[16],1.6%
same,"viability, T/C",[17],2.31%
same,"viability, T/C",[18],0.61%
same,"viability, T/C",[19],0.17%
same,"viability, T/C",[20],0.12%
same,"viability, T/C",[21],0.08%
same,"viability, T/C",[22],0.08%
same,"viability, T/C",[23],0.1%
same,"viability, T/C",[24],0.19%
same,"viability, T/C",[25],0.13%
same,"viability, T/C",[26],0.14%
same,"viability, T/C",[27],0.12%
same,"viability, T/C",[28],0.15%
same,"viability, T/C",[29],0.12%
same,"viability, T/C",[30],0.1%
same,"viability, T/C",[31],0.09%
same,"viability, T/C",[32],0.1%
same,"viability, T/C",[33],0.08%
same,"viability, T/C",[34],0.09%
same,"viability, T/C",[35],0.11%
same,"viability, T/C",[36],0.08%
COc1c(OCCCN2CCOCC2)ccc2c3n(c(=NC(=O)c4cnc(N)nc4)nc12)CCN3 + CN1CCN(c2cc(C(=O)Nc3cc4cc(-c5cnn(C)c5)ccc4cn3)ccn2)CC1,IC50,second compound 0.0316 µM,8.9 nM
same,IC50,second compound 0.1 µM,< 3.16 nM
same,IC50,second compound 0.316 µM,< 3.16 nM
same,IC50,second compound 1 µM,< 3.16 nM
same,IC50,second compound 3.16 µM,< 3.16 nM
same,IC50,second compound 10 µM,< 3.16 nM
same,"viability, T/C",[1],52.3%
same,"viability, T/C",[2],51.3%
same,"viability, T/C",[3],33.9%
same,"viability, T/C",[4],13.7%
same,"viability, T/C",[5],3.82%
same,"viability, T/C",[6],1.54%
same,"viability, T/C",[7],20.9%
same,"viability, T/C",[8],17.7%
same,"viability, T/C",[9],11.5%
same,"viability, T/C",[10],6.91%
same,"viability, T/C",[11],1.95%
same,"viability, T/C",[12],1.19%
same,"viability, T/C",[13],1.52%
same,"viability, T/C",[14],1.2%
same,"viability, T/C",[15],0.85%
same,"viability, T/C",[16],0.73%
same,"viability, T/C",[17],0.56%
same,"viability, T/C",[18],0.47%
same,"viability, T/C",[19],0.08%
same,"viability, T/C",[20],0.11%
same,"viability, T/C",[21],0.12%
same,"viability, T/C",[22],0.12%
same,"viability, T/C",[23],0.11%
same,"viability, T/C",[24],0.34%
same,"viability, T/C",[25],0.17%
same,"viability, T/C",[26],0.13%
same,"viability, T/C",[27],0.13%
same,"viability, T/C",[28],0.09%
same,"viability, T/C",[29],0.17%
same,"viability, T/C",[30],0.17%
same,"viability, T/C",[31],0.03%
same,"viability, T/C",[32],0.06%
same,"viability, T/C",[33],0.1%
same,"viability, T/C",[34],0.56%
same,"viability, T/C",[35],0.13%
same,"viability, T/C",[36],0.12%
